Assay [1] deals with S. cerevisiae MS14 mutant. Put plainly: disc diffusion drug resistance/sensitivity test. Format: cell-based, Saccharomyces cerevisiae. Here is the method: Cells of the yeast strains MY2144 and MY2145 carrying the respective MS10 and MS14 mutations were grown overnight in YPAD and SC media. From the overnight cultures, cells were diluted 1:10 in the same media and allowed to further grow for 4-6 hrs. The drug resistance/sensitivity tests were conducted by the disc diffusion assay on plates containing 20 ml of solid YPAD or SC media and 3×10^6 cells. The cells were added to premelted media that was cooled to 50° C. before pouring onto plates. Sterile filter discs containing different drugs were placed on the surface of the plates followed by incubation at 28° C. for 1-2 days. Sizes of the zones of growth inhibition were measured as an indication of relative drug resistance/sensitivity. The MS14 mutant is supersensitive to the chitin synthesis inhibitor nikkomycin Z and resistant to the echinocandin L-733-560.

Assay [2] relates to S. cerevisiae MY2144 (fks 1-3). Put plainly: MIC, growth inhibition. As to conditions: Saccharomyces cerevisiae, 24 h. Format: cell-based, Saccharomyces cerevisiae. The protocol: (§1) Liquid broth microdilution assay
(§2) To quantitate the sensitivity of a particular strain of S. cerevisiae to a compound such as FK506, L-733,560, or nikkomycin Z, the following procedure was followed:
(§3) Dissolve drug of interest at 4× the desired initial concentration. For L-733,560, a 64 mcg/ml solution in sterile SD is prepared. Aliquot 75 mcL of the drug suspension into column 3. Using a multichannel pipettor, transfer 75 mcL from column 3 into column 4, pipet up and down three times to mix, and then transfer 75 mcL from column 4 into column 5. Repeat the serial dilution until column 12 is reached; after mixing, discard 75 mcL to waste.
(§4) Inoculate each strain in a given row by adding 75 mcL of the inoculum into columns 2 to 12. […] Column 2 serves as the no-drug or 100% growth control. The plate is then incubated overnight at 30° C. without shaking.
(§5) After approximately 24 hours of incubation, gently agitate the plate to resuspend the cells and read the absorbance at 600 nm wavelength. The % control growth for any given well can be calculated by dividing the absorbance value for that well by the value from column 2 in the same row. If this is done for each column, the data can be plotted as "Percent control growth" vs. "Drug concentration". The resulting dose-response curve can be used to compare the drug sensitivities of various strains.
(§6) The data in the following table are the minimum concentration of the various drugs required to inhibit the growth of each the mutants and their parent X2180-1A.

In assay [3] the test system is S. cerevisiae X2180-1A. Put plainly: MIC, growth inhibition. Format: cell-based, Saccharomyces cerevisiae. As to conditions: Saccharomyces cerevisiae, X21801A, 24 h, minimum concentration required to inhibit growth, read-out: MIC. The protocol:
as §1, §2, §3, §4, §5, §6

Assay [4] relates to S. cerevisiae MY2145. Description: MIC, growth inhibition. As to conditions: Saccharomyces cerevisiae, MY2145, 24 h; read-out: MIC. The class given is cell-based, Saccharomyces cerevisiae. The protocol: as §1, §2, §3, §4, §5, §6
Assay [5] relates to chitin synthase from MY2145 (fks 1-4). Put plainly: chitin synthase assay, membrane preparation. Format: biochemical, Saccharomyces cerevisiae. The note with it: membranes of MY2145 (fks 1-4). The protocol:
(§7) 125 mcg of the above extracts were trypsin activated and mixed with an equal volume (50 mcL) chitin synthase reaction cocktail, which included 0.5M Tris, pH 7.5, 40 mM MgCl, 320 microM GlcNAc, ^14 C-UDP-GlcNAc substrate mix, and 0.8% digitonin. After 30 minutes of incubation at 30° C., the incorporated ^14 C-[…] was precipitated with 10% trichloroacetic acid, collected onto Whatman glass microfiber GF/A disks and counted.
(§8) Crude enzyme preparations associated with cell membranes were tested for glucan and chitin synthesis activities. The sensitivity of the mutant 1,3-beta-D glucan synthase to L-733,560 and papulacandin was tested along with the sensitivity of the chitin synthases to nikkomycin Z.
(§9) The chitin synthase is not affected in its sensitivity to nikkomycin Z. The data in the following table show the IC50 s for the glucan synthase inhibitors (L-733,560 and papulacandin) and the chitin synthase inhibitor (nikkomycin Z) in 1,3-beta-D glucan synthase and chitin synthase assays, respectively. Equal amounts of membrane proteins were used to prime each reaction.

Assay [6] deals with chitin synthase from MY2144 (fks 1-3). Description: chitin synthase assay, membrane preparation. The class given is biochemical, Saccharomyces cerevisiae. The note with it: membranes of MY2144 (fks 1-3). Here is the method: as §7, §8, §9
For assay [7], the system named is chitin synthase from X2180-1A. Description: chitin synthase assay, membrane preparation. The class given is biochemical, Saccharomyces cerevisiae. As to conditions: membranes of X2180-1A. The protocol:
as §7, §8, §9

Assay [8] deals with S. cerevisiae FKS1 pcr1 spores. Put plainly: drug phenotype of segregants from tetrad analysis. The class given is cell-based, Saccharomyces cerevisiae. From the text: YFK0996-11B (MATa fks1-1 pcr1) was also crossed to YFK0005 (MATalpha FKS1 PCR1). In this cross, the pcr1 and fks1-1 mutations segregate independently. In the 16 four-spore and 20 three-spore tetrads, the segregation pattern of 1 Parental Ditype: 1 Non Parental Ditype : 4 Tetratype tetrads is indicative of two unlinked genes. […] Strains MY2257 (also known as YFK1088-23B, MATa FKS1 +pcr1), MY2258 (also known as YFK1088-16D, MATalpha FKS1+pcr1), and YFK1088-02D (MATa FKS1 +pcr1) were segregants from this cross. As shown in the table below, these segregants contain the pcr1 mutation in a wild-type FKS1 background and lack plasmid pDL1 present in the original mutant.

Assay [9] relates to S. cerevisiae YFK532-7C (fks1-1) versus YFK007. Put plainly: sensitivity of fks1-1 mutant relative to FKS1 wild-type strain. Format: cell-based, Saccharomyces cerevisiae. The note with it: calcineurin inhibitors.
In assay [10] the test system is S. cerevisiae YFK007 (wild type). Description: primary screen, zone size on agar. As to conditions: 20 ng FK506, 10 mcg CsA, 10 mcg L733,560, 20 mcg aculeacin, 20 mcg papulacandin, 48 h. The class given is cell-based, Saccharomyces cerevisiae. Here is the method:
(§10) Each strain is grown at 28°-30° C. in YPAD/10 mM CaCl2 medium with shaking at 220 rpm (to mid or late log phase). The cultures are diluted 1:10 with water, and the OD values of the dilutions are measured at 600 nm (against a blank of YPAD/10 mM CaCl2 similarly diluted 1:10 in water). The OD value is multiplied by 10 to estimate the OD of the culture. Portions (100 ml) of YPAD/10 mM CaCl2 medium containing 1.5% agar, equilibrated at 45° C. in a water bath, are seeded with culture such that the final cell density in the agar would have an OD value of 0.015 (i.e., 3×10^6 cfu/ml; a sample calculation is provided below). The seeded agar is poured into 500 cm^2 Nunc plates. Once the agar plates have solidified, 10 mcL aliquots of samples containing test compounds, such as fermentation extracts, are dissolved in water, 100% methanol or ethanol, or up to 50% DMSO and are placed on each member of the two-plate set in 11 by 8 arrays.
(§11) The plates are incubated for 48 h at 28°-30° C. Diameters of the zones are read to the outermost edge and recorded in mm. The clarity of the zone is reported as clear (no designation), hazy (h), or very hazy (vh). Very hazy zones are best seen by viewing the plate under an elevated light placed between the assay dish and a dark wall.

Assay [11] deals with S. cerevisiae YFK532-7C (fks1-1). Description: primary screen, zone size on agar. The class given is cell-based, Saccharomyces cerevisiae. The note with it: 20 ng FK506, 10 mcg CsA, 10 mcg L733,560, 20 mcg aculeacin, 20 mcg papulacandin, 48 h. Here is the method: as §10, §11
The subject of assay [12] is S. cerevisiae YFK798 (fks1-1 + CN). Description: primary screen, zone size on agar (calcineurin counter screen). Format: cell-based, Saccharomyces cerevisiae. As to conditions: 20 ng FK506, 10 mcg CsA, 10 mcg L733,560, 20 mcg aculeacin, 20 mcg papulacandin, 48 h. Here is the method: Counter screening strains were devised for identifying calcineurin inhibitors. Overexpression of yeast calcineurin in the fks1-1 mutant (strain YFK798) constitutes the most general of these. […] Glucan synthase inhibitors show neither effect and thus can be distinguished from calcineurin inhibitors.
as §10, §11

Assay [13] has as its system S. cerevisiae haploid strain with the insertion-deletion allele (fks1-5::HIS3 / fks1-6::HIS3). Description: phenotype of haploid strain with FKS1 insertion-deletion allele. Format: cell-based, Saccharomyces cerevisiae. The text has this:
An insertion-deletion allele of the fks1-1 complementing DNA was created in the following manner. The 8.8-kb SphI-PstI fragment of pFF133 was inserted between the SphI and PstI sites of the polylinker of the E. coli vector pGEM-5Zf(+) (Promega, Madison, Wis.) giving plasmid pFF174. The 1.3-kb BamHI-XhoI HIS3 fragment from plasmid pJJ215 (J. S. Jones and L. Prakash, Yeast, 6:363-366 (1990)) was inserted by blunt-end ligation (see Current Protocols, p. 3.5.10) between the two KpnI sites of plasmid pFF174 giving plasmids pFF186 (sense orientation) and pFF187 (antisense orientation). The 6.6-kb insertion-deletion fragments were excised by digestion with SstI+SphI and purified by agarose gel electrophoresis. The insertion-deletion mutation was created by one-step gene replacement (see R. Rothstein, GYG, pp. 281-301). This disruption was confirmed by Southern blot hybridization analysis of genomic DNA digested with PstI and probed with the 8.8-kb SphI-PstI fragment from plasmid pFF174. The undisrupted parent gives a single 9.8-kb genomic fragment which hybridizes with the probe. A disruption mutant in which HIS3 is inserted in the sense orientation, for example YFF2409, gives 3.9- and 3.7-kb fragments, while an antisense disruption mutant, for example YFF2411, gives 4.9- and 2.7-kb fragments. […]

For assay [14], the system named is S. cerevisiae R560-1C. Put plainly: secondary screen, zone size on agar. The note with it: 20 ng FK506, 10 mcg CsA, 10 mcg L733,560, 20 mcg aculeacin, 20 mcg papulacandin. Format: cell-based, Saccharomyces cerevisiae. The protocol: (§12) For positively identifying glucan synthase inhibitors, screening with strain R560-1C and its parent W303-1A was instituted in a manner identical to that described for calcineurin inhibitors. Complete loss of a zone, or marked reduction in size, on R560-1C versus W303-1A indicates a glucan synthase inhibitor. No zones are seen with calcineurin inhibitors using this pair of strains.
as §10, §11

For assay [15], the system named is S. cerevisiae W303-1A. Description: secondary screen, zone size on agar. Format: cell-based, Saccharomyces cerevisiae. As to conditions: 20 ng FK506, 10 mcg CsA, 10 mcg L733,560, 20 mcg aculeacin, 20 mcg papulacandin. Here is the method:
as §12, §10, §11

Assay [16] has as its system S. cerevisiae MY2256. Description: MIC assay. The note with it: Saccharomyces cerevisiae, MY2256, 42 h. The class given is cell-based. Here is the method: (§13) The sensitivities of pcr1(fks2-1) fks1-1 and pcr1(fks2-1) FKS1 strains to L-733,560, L-636,947 (Aculeacin), and L-687,781 (Dihydropapulocandin) were determined in MIC assays. Briefly, strains were grown to stationary phase in 5.0 ml of liquid YPAD medium. MY2256 precultures were grown in liquid YPAD10Ca. MIC assays were performed in flat well microtiter plates in triplicate. Each well of the microtiter plate was filled with 100 mcL of YPAD medium. To the first well, 100 mcL of a 4× solution of drug in YPAD medium was added. To serve as a control, a stock solution of […] of YPAD was made. 100 mcL of this solution was added to the initial well for strains grown in the presence of solvent but the absence of drug. Two-fold serial dilutions of the drug were performed down the plate.
(§14) Cultures were diluted to 5×10^5 cells/ml in YPAD (1 OD660 =3.3×10^7 cells/ml). 100 mcL of diluted culture was added to each well, resuspended, and incubated at 28° C. After 42 hours, cultures were resuspended and cells densities measured in an SLT Laboratories 340 ATTC microtiter plate reader.

In assay [17] the test system is S. cerevisiae YFK0931-07B. Description: MIC assay. The note with it: Saccharomyces cerevisiae, YFK093107B, 42 h; YFK0931-07B; read-out: MIC. The class given is cell-based. The protocol:
as §13, §14

In brackets after ≈: the same amount, converted by molar mass.

By MIC is commonly meant the smallest concentration in the dilution series that meets the test's criterion for growth inhibition. By IC50 is commonly meant the concentration that gives 50% inhibition. A higher IC50 goes with weaker potency.

As for `C[C@@H]([C@H](N)C(=O)N[C@H](C(=O)O)[C@H]1O[C@@H](n2ccc(=O)[nH]c2=O)[C@H](O)[C@@H]1O)[C@H](O)c1ccc(O)cn1` [Nikkomycin Z, nikkomycin Z], the drug resistance/sensitivity phenotype result in assay [1] is given as “supersensitive”. In addition, the MIC is over 100 µg/mL in [2], over 100 µg/mL in [3] and 0.2 µg/mL (≈ 0.404 µM) in assay [4]. Moreover, the values for the IC50 in assay [5], in assay [6] and in assay [7] were 0.64 µg/mL (≈ 1.29 µM), 0.60 µg/mL (≈ 1.21 µM) and 0.74 µg/mL (≈ 1.49 µM), respectively.
Turning to `C=CC[C@@H]1/C=C(\C)C[C@H](C)C[C@H](OC)[C@H]2O[C@@](O)(C(=O)C(=O)N3CCCC[C@H]3C(=O)O[C@H](/C(C)=C/[C@@H]3CC[C@@H](O)[C@H](OC)C3)[C@H](C)[C@@H](O)CC1=O)[C@H](C)C[C@@H]2OC` [FK506], the “drug resistance phenotype of spores” value in assay [8] is on record as “resistant”. For the same molecule, the “sensitivity of YFK532-7C relative to YFK007” value in assay [9] is reported as “at least a thousand fold more sensitive”. The “Primary Screen Zone size (mm)” value in assay [10] is “none”; in assay [11], 15-17 mm; in [12], 13 mm. Besides, the drug sensitivity phenotype entry in assay [13] is recorded as “hypersensitive”. Further, the “Secondary Screen Zone size (mm)” value in assay [14] and in assay [15] was “none” throughout. In addition, the MIC in assay [16] was 0.06 µg/mL (≈ 0.0746 µM); in assay [17], 0.03 µg/mL (≈ 0.0373 µM).
